What all share (type): in vivo, mouse
Test [1] has as its system sKitL. Put plainly: sKitL levels in BM plasma (ELISA). As to conditions: WT mice. How it is done: BM extracellular fluid (BM plasma) from mice was obtained as described previously (Petit et al. (2002), Nat. Immunol. 3:687-94). BM plasma from healthy volunteers was obtained by using the first 10 ml of collection via puncture in the iliac crest under local anesthesia, and immediate anti-coagulation with EDTA. Protein extraction on BM cells was performed as described (Heymans et al. (1999), Nat. Med. 5:1135-42). Murine sKitL and SDF1α protein levels were quantified using commercial available ELISA (R&D Systems, Abingdon, UK). Murine plasminogen, and murine and human suPAR were quantified by home-made ELISA (Heymans et al. (1999), Nat. Med. 5:1135-42; Sier et al. (2004), Thromb. Haemost. 91:403-11). Lyophilized pertussis toxin was obtained from List Laboratories. MMP-2, MMP-9, and MMP-12 activities were measured using gelatin-zymography, uPA and MMP-3 activities were measured using casein-zymography, as described previously (Heymans et al. (1999), Nat. Med. 5:1135-42). Samples from gene-deficient mice were used as negative controls. Plasmin activity of BM plasma or cells (pericellular activity) was measured using substrate colorimetry (S2403), as described previously (Heymans et al. (1999), Nat. Med. 5:1135-42). Fibrinolytic activity was measured using a modified fluorescent-based in vitro clot lysis assay (Heymans et al. (1999), Nat. Med. 5:1135-42). Western blotting was performed on non-reduced samples, which were neutralized with a cocktail of protease inhibitors (Complete Inhibitor, Roche). ECM components/fragments were detected with antibodies against mouse fibronectin and laminin (Sigma), and human D1D2D3 and D2D3 (Andolfo et al. (1999), Thromb. Haemost. 88:298-306), secondary HRP-labeled antibodies (DAKO), and ECL detection system (Amersham Pharmacia).

Test [2] has as its system BM cells. Put plainly: FACS analysis of BM cells after 5-FU. As to conditions: for Sca-1+ progenitors in S-phase of the cell cycle: 5-FU treatment; for CD3ε+ lymphoid cell counts / Gr1+CD11b+ myeloid cell counts: day 7 after 5-FU; for BM HSCs (Sca-1+cKit+ cells) / HPCs (Sca-1+ cells): seven days after 5-FU. An excerpt: Murine BM cells were filtered through a 40 μm nylon mesh (Falcon) and stained with labeled anti-mouse antibodies against CD11b, Gr-1, CD3ε, CD19, Sca-1, α5β1, (BD Biosciences), cKit (eBioscience). Anti-mouse α4β1, antibodies were generated from hybridoma (PS/2; ATCC), and detected using a secondary labeled anti-rat antibody (Caltag). Mouse annexin II was detected using a goat anti-annexin II antibody (Santa Cruz), and a secondary labeled rabbit anti-goat antibody (Caltag). Mouse uPAR was detected using a rabbit anti-mouse uPAR antibody (Sier et al. (2004), Thromb. Haemost. 91:403-11), and a secondary labeled goat anti-rabbit antibody (BD Biosciences). Control stainings included matched isotype antibodies and pre-immune antibodies. Non-specific binding was prevented by addition of mouse serum (DAKO), as alternative for Fc-receptor block. For cell cycle analysis, BM cells were stained with Sca-1-FITC and treated with PI/RNAse (BD Biosciences), as previously described (Heissig et al. (2002), Cell 109:625-37). From EDTA-anti-coagulated human blood, full blood counts were performed, MNCs were prepared using Lymphoprep (Axis-Shield), counted, and 1×10^6 PB MNCs were stained with anti-human CD34 (Tebu Bio).
In general terms: A flow cytometer gives signals particle by particle.

Test [3] deals with fibronectin, collagen IV. As to the kind of experiment: Immunostaining of BM sections for ECM proteins. How it is done: Mice were killed via cervical dislocation, femurs were removed, fixed in 2% paraformaldehyde in PBS for 24 hours, and decalcified in EDTA solution. After dehydration and paraffin embedding, 10 μm transverse sections were prepared on Superfrost Plus slides. Immunohistochemistry was performed using antibodies against VWF (DAKO), MMP-9 (Oncogene), tPA, uPA, MMP-2, MMP-3, MMP-12 (Santa Cruz), laminin, fibronectin (Sigma), and collagen IV (kind gift from A. Noel). Analysis was performed on a Zeiss Axioplan2, a 3CCD video camera (DXC-93OP, Sony), and KS300 software.

With `O=c1[nH]cc(F)c(=O)[nH]1` [5-FU, 5-fluorouracil], in test [1] (seven days after treatment), the “elevation of sKitL levels in the BM plasma” value is listed as 14 fold. In addition, the “elevation of sKitL levels in the BM plasma” value in test [1] (ten days after treatment) was determined as 2.5 fold. Moreover, in test [2] (Plg−/− mice), the “Sca-1+ progenitors in S-phase of the cell cycle” value is on record as 1.2±0.6 ×10^4 per femur, the “CD3ε+ lymphoid cell counts” value is given as 67±31 ×104 per femur, the “Gr1+CD11b+ myeloid cell counts” value is recorded as 3±2 ×10^4 per femur and the “BM HSCs (Sca-1+cKit+ cells)” value is reported as 5±1 ×10^4 per femur. In addition, in test [2] (Plg−/− mice), the “HPCs (Sca-1+ cells)” value is on record as 48±22 ×10^4 per femur. Also, in test [2] (WT mice), the “Sca-1+ progenitors in S-phase of the cell cycle” value is recorded as 8.4±0.8 ×10^4 per femur, the “CD3ε+ lymphoid cell counts” value is given as 438±122 ×104 per femur, the “Gr1+CD11b+ myeloid cell counts” value is recorded as 29±13 ×10^4 per femur and the “BM HSCs (Sca-1+cKit+ cells)” value is listed as 42±9 ×10^4 per femur. In addition, the “HPCs (Sca-1+ cells)” value in test [2] (WT mice) is listed as 206±20 ×10^4 per femur. Moreover, in test [3] (5-FU-treated WT mice), the “collagen-IV+ area as % of total area” value is reported as 21±1% and the “fibronectin+ area as % of total area” value is 9±1%. For the same compound, in test [3] (5-FU-treated uPA−/− mice), the “collagen-IV+ area as % of total area” value is 26±1% and the “fibronectin+ area as % of total area” value is on record as 14±2%.

The record behind these values is US8003096B2, “Means and methods for the recruitment and identification of stem cells” (Vlaams Interuniversitair Instituut voor Biotechnologie VZW, priority 2003, dated 2011).
